Patent publication US10750743B2, “Pyridazinone herbicides” (E.I. DU PONT DE NEMOURS AND COMPANY, priority 2015, dated 2020)

Key:
Assay type in all cases: in vivo
[1] = test system: ragweed (common ragweed, Ambrosia elatior); assay: Test A postemergence application, visual injury rating; conditions: Ambrosia artemisiifolia, post-emergence, 240 h, 0 to 100 scale, 0 no effect, 100 complete control, read-out: Ragweed plant response rating; for pest or weed control at 125 g/ha: 125 g ai/ha; for pest or weed control at 500 g/ha: 500 g ai/ha
Method in brief: (§1)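 Seeds sown in a loam soil–sand blend received a directed preemergence soil spray of test chemical in a non-phytotoxic solvent mixture with surfactant. Postemergence plants were sprayed at 2 to 10 cm, one- to two-leaf stage. After approximately 10 d in greenhouse, injury was visually rated 0 (no effect) to 100 (complete control) against untreated controls.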

[2] = test system: kochia (Kochia scoparia); assay: as above; conditions: Bassia scoparia, post-emergence, 240 h, 0 to 100 scale, 0 no effect, 100 complete control, read-out: Kochia plant response rating; for pest or weed control at 125 g/ha: 125 g ai/ha; for pest or weed control at 500 g/ha: 500 g ai/ha
Method in brief: as §1

[3] = test system: pigweed (Amaranthus retroflexus); assay: as above; conditions: Amaranthus retroflexus, post-emergence, 240 h, 0 to 100 scale, 0 no effect, 100 complete control, read-out: Pigweed plant response rating; for pest or weed control at 125 g/ha: 125 g ai/ha; for pest or weed control at 500 g/ha: 500 g ai/ha
Method in brief: as §1

[4] = test system: galium (catchweed bedstraw, Galium aparine); assay: as above; conditions: Galium, post-emergence, 240 h, 0 to 100 scale, 0 no effect, 100 complete control, read-out: Galium plant response rating; for pest or weed control at 125 g/ha: 125 g ai/ha; for pest or weed control at 500 g/ha: 500 g ai/ha
Method in brief: as §1

[5] = test system: corn (Zea mays); assay: as above; conditions: Zea mays, post-emergence, 240 h, 0 to 100 scale, 0 no effect, 100 complete control, read-out: Corn plant response rating; for plant injury at 125 g/ha: 125 g ai/ha; for plant injury at 500 g/ha: 500 g ai/ha
Method in brief: as §1

[6] = test system: barnyardgrass (Echinochloa crus-galli); assay: as above; conditions: Echinochloa crus-galli, post-emergence, 240 h, 0 to 100 scale, 0 no effect, 100 complete control, read-out: Barnyardgrass plant response rating; for pest or weed control at 125 g/ha: 125 g ai/ha; for pest or weed control at 500 g/ha: 500 g ai/ha
Method in brief: as §1

[7] = test system: foxtail, giant (giant foxtail, Setaria faberii); assay: as above; conditions: Setaria faberi, post-emergence, 240 h, 0 to 100 scale, 0 no effect, 100 complete control, read-out: Foxtail, Giant plant response rating; for pest or weed control at 125 g/ha: 125 g ai/ha; for pest or weed control at 500 g/ha: 500 g ai/ha
Method in brief: as §1

[8] = test system: ryegrass, It. (Italian ryegrass, Lolium multiflorum); assay: as above; conditions: Lolium multiflorum, post-emergence, 240 h, 0 to 100 scale, 0 no effect, 100 complete control, read-out: Ryegrass, It. plant response rating; for pest or weed control at 125 g/ha: 125 g ai/ha; for pest or weed control at 500 g/ha: 500 g ai/ha
Method in brief: as §1

[9] = test system: ducksalad (Heteranthera limosa); assay: Test B flooded paddy test, visual rating; conditions: Heteranthera limosa, 360 h; Flood, 250 g ai/ha, applied to paddy water, rated after 13 to 15 d; read-out: Ducksalad plant response rating (0 to 100 scale, 0 is no effect, 100 is complete control)
Method in brief: (§2)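 Plants at the 2-leaf stage were flooded to 3 cm above soil, and test compounds were applied directly into the paddy water, which was held at that depth throughout. After 13 to 15 d in a greenhouse, injury was rated visually against untreated controls on a 0–100 scale (0 no effect, 100 complete control).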

[10] = test system: rice (Oryza sativa); assay: Test B flooded paddy test, visual rating; conditions: Oryza sativa, 360 h; Flood, 250 g ai/ha, applied to paddy water, rated after 13 to 15 d; read-out: Rice plant response rating (0 to 100 scale, 0 is no effect, 100 is complete control)
Method in brief: as §2

[11] = test system: barnyardgrass (Echinochloa crus-galli); assay: Test B flooded paddy test, visual rating; conditions: Echinochloa crus-galli, 360 h; Flood, 250 g ai/ha, applied to paddy water, rated after 13 to 15 d; read-out: Barnyardgrass plant response rating (0 to 100 scale, 0 is no effect, 100 is complete control)
Method in brief: as §2

[12] = test system: sedge, umbrella (small-flower umbrella sedge, Cyperus difformis); assay: Test B flooded paddy test, visual rating; conditions: Cyperus difformis, 360 h; Flood, 250 g ai/ha, applied to paddy water, rated after 13 to 15 d; read-out: Sedge, Umbrella plant response rating (0 to 100 scale, 0 is no effect, 100 is complete control)
Method in brief: as §2

[13] = test system: ragweed (common ragweed, Ambrosia elatior); assay: Test A preemergence, directed soil spray, visual injury rating; conditions: Ambrosia artemisiifolia, pre-emergence, 240 h, 0 is no effect, 100 is complete control, read-out: Plant response rating (0 to 100 scale), Ragweed; for pest or weed control at 125 g/ha: 125 g ai/ha; for pest or weed control at 500 g/ha: 500 g ai/ha
Method in brief: as §1

[14] = test system: kochia (Kochia scoparia); assay: as above; conditions: Bassia scoparia, pre-emergence, 240 h, 0 is no effect, 100 is complete control, read-out: Plant response rating (0 to 100 scale), Kochia; for pest or weed control at 125 g/ha: 125 g ai/ha; for pest or weed control at 500 g/ha: 500 g ai/ha
Method in brief: as §1

[15] = test system: pigweed (Amaranthus retroflexus); assay: as above; conditions: Amaranthus retroflexus, pre-emergence, 240 h, 0 is no effect, 100 is complete control, read-out: Plant response rating (0 to 100 scale), Pigweed; for pest or weed control at 125 g/ha: 125 g ai/ha; for pest or weed control at 500 g/ha: 500 g ai/ha
Method in brief: as §1

[16] = test system: barnyardgrass (Echinochloa crus-galli); assay: as above; conditions: Echinochloa crus-galli, pre-emergence, 240 h, 0 is no effect, 100 is complete control, read-out: Plant response rating (0 to 100 scale), Barnyardgrass; for pest or weed control at 125 g/ha: 125 g ai/ha; for pest or weed control at 500 g/ha: 500 g ai/ha
Method in brief: as §1

[17] = test system: foxtail, giant (giant foxtail, Setaria faberii); assay: as above; conditions: Setaria faberi, pre-emergence, 240 h, 0 is no effect, 100 is complete control, read-out: Plant response rating (0 to 100 scale), Foxtail, Giant; for pest or weed control at 125 g/ha: 125 g ai/ha; for pest or weed control at 500 g/ha: 500 g ai/ha
Method in brief: as §1

[18] = test system: ryegrass, It. (Italian ryegrass, Lolium multiflorum); assay: as above; conditions: Lolium multiflorum, pre-emergence, 240 h, 0 is no effect, 100 is complete control, read-out: Plant response rating (0 to 100 scale), Ryegrass, It.; for pest or weed control at 125 g/ha: 125 g ai/ha; for pest or weed control at 500 g/ha: 500 g ai/ha
Method in brief: as §1

Row | Compound | pest or weed control at 125 g/ha [1] [%] | pest or weed control at 500 g/ha [1] [%] | pest or weed control at 125 g/ha [2] [%] | pest or weed control at 500 g/ha [2] [%] | pest or weed control at 125 g/ha [3] [%] | pest or weed control at 500 g/ha [3] [%] | pest or weed control at 125 g/ha [4] [%] | pest or weed control at 500 g/ha [4] [%] | plant injury at 125 g/ha [5] [%] | plant injury at 500 g/ha [5] [%] | pest or weed control at 125 g/ha [6] [%] | pest or weed control at 500 g/ha [6] [%] | pest or weed control at 125 g/ha [7] [%] | pest or weed control at 500 g/ha [7] [%] | pest or weed control at 125 g/ha [8] [%] | pest or weed control at 500 g/ha [8] [%] | pest or weed control at 250 g/ha [9] [%] | plant injury at 250 g/ha [10] [%] | pest or weed control at 250 g/ha [11] [%] | pest or weed control at 250 g/ha [12] [%] | further results
1 | CC(=O)Oc1c(C)nn(C)c(=O)c1-c1c(C)ccc2cc(C)oc12 [Compound 11, 5-(acetyloxy)-4-(2,6-dimethyl-7-benzofuranyl)-2,6-dimethyl-3(2H)-pyridazinone] | 100 | 100 | 100 | 100 | 90 | 100 | 90 | 90 | 0 | 30 | 30 | 60 | 60 | 80 | 100 | 100 | 0 | 0 | 0 | 0 | pest or weed control at 125 g/ha [13]: 90%; pest or weed control at 500 g/ha [13]: 100%; pest or weed control at 125 g/ha [14]: 90%; pest or weed control at 500 g/ha [14]: 100%; pest or weed control at 125 g/ha [15]: 100%; pest or weed control at 500 g/ha [15]: 100%; pest or weed control at 125 g/ha [16]: 50%; pest or weed control at 500 g/ha [16]: 100%; pest or weed control at 125 g/ha [17]: 50%; pest or weed control at 500 g/ha [17]: 100%; pest or weed control at 125 g/ha [18]: 100%; pest or weed control at 500 g/ha [18]: 100%
2 | Cc1cc2cccc(-c3c(O)c(C)nn(C)c3=O)c2o1 [Compound 12, 5-hydroxy-2,6-dimethyl-4-(2-methyl-7-benzofuranyl)-3(2H)-pyridazinone] | 40 | 80 | 0 | 50 | 30 | 50 | 80 | 90 | 0 | 10 | 10 | 30 | 20 | 40 | 90 | 100 | 0 | 0 | 0 | 0 | pest or weed control at 125 g/ha [13]: 60%; pest or weed control at 500 g/ha [13]: 80%; pest or weed control at 125 g/ha [14]: 60%; pest or weed control at 500 g/ha [14]: 100%; pest or weed control at 125 g/ha [15]: 60%; pest or weed control at 500 g/ha [15]: 100%; pest or weed control at 125 g/ha [16]: 0%; pest or weed control at 500 g/ha [16]: 50%; pest or weed control at 125 g/ha [17]: 10%; pest or weed control at 500 g/ha [17]: 60%; pest or weed control at 125 g/ha [18]: 100%; pest or weed control at 500 g/ha [18]: 100%
